# Experimental data taken from ChEMBL document CHEMBL1201862, “PubChem BioAssay data set” (2004).
#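 Tested at 5 concentrations; 48 h exposure; 96-well plates; endpoints linearly interpolated, else capped at highest concentration. GI50: concentration for 50% inhibition of growth.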 Calls of active or inactive are those of the source. Rule as the data show it: active = GI50 up to about 1.1 µM and inactive = higher. Where a SMILES comes first, the peptide text is derived from it. [ ]: non-standard residue; d: D form. The star is where a group is joined. ξ: configuration not given here. X38 = O=C(OCc1ccccc1)[C@@H]1CCC[C@H]1N*; Fmoc = O=C(OCC1c2ccccc2-c2ccccc21)*; ξW = NC(Cc1c[nH]c2ccccc12)C(=O)O; ξF = NC(Cc1ccccc1)C(=O)O; Boc = CC(C)(C)OC(=O)*; ξK = NCCCCC(N)C(=O)O; ξT = CC(O)C(N)C(=O)O; tBu = CC(C)(C)*
# Legend:
# Assay in all cases: inhibition of tumour cell growth, NCI panel, 48 h
# HCC 2998 = tested on: HCC 2998
# 786-0 = tested on: 786-0
# SK-MEL-2 = tested on: SK-MEL-2
# EKVX = tested on: EKVX
# SK-MEL-5 = tested on: SK-MEL-5
# HT-29 = tested on: HT-29
# SF-539 = tested on: SF-539
# SNB-75 = tested on: SNB-75
# NCI-H23 = tested on: NCI-H23
# SN12C = tested on: SN12C
# KM12 = tested on: KM12
# NCI-H226 = tested on: NCI-H226
# M14 = tested on: M14
# LOX IMVI = tested on: LOX IMVI
# NCI-H460 = tested on: NCI-H460
# MDA-MB-435 = tested on: MDA-MB-435
# MDA-MB-231 = tested on: MDA-MB-231
# NCI/ADR-RES = tested on: NCI/ADR-RES
# PC-3 = tested on: PC-3
# BT-549 = tested on: BT-549
SMILES,GI50 (HCC 2998),GI50 (786-0),GI50 (SK-MEL-2),GI50 (EKVX),GI50 (SK-MEL-5),GI50 (HT-29),GI50 (SF-539),GI50 (SNB-75),GI50 (NCI-H23),GI50 (SN12C),GI50 (KM12),GI50 (NCI-H226),GI50 (M14),GI50 (LOX IMVI),GI50 (NCI-H460),GI50 (MDA-MB-435),GI50 (MDA-MB-231),GI50 (NCI/ADR-RES),GI50 (PC-3),GI50 (BT-549)
N=C1c2ccccc2C(=O)c2c(NCCNCCO)ccc(O)c21,9.42 µM (inactive),4.73 µM (inactive),17.1 µM (inactive),12 µM (inactive),7.03 µM (inactive),9.02 µM (inactive),4.73 µM (inactive),15.6 µM (inactive),9.16 µM (inactive),4.83 µM (inactive),6.92 µM (inactive),9.84 µM (inactive),10.3 µM (inactive),4.15 µM (inactive),5.06 µM (inactive),,,,,
[N-]=[N+]=Nc1ccc(S(=O)(=O)Oc2cc(OS(=O)(=O)c3ccc(N=[N+]=[N-])cc3)cc(OS(=O)(=O)c3ccc(N=[N+]=[N-])cc3)c2)cc1,> 100 µM (inactive),> 100 µM (inactive),> 100 µM (inactive),> 100 µM (inactive),> 100 µM (inactive),> 100 µM (inactive),> 100 µM (inactive),> 10 µM (inactive),> 100 µM (inactive),> 10 µM (inactive),> 100 µM (inactive),> 10 µM (inactive),> 100 µM (inactive),> 100 µM (inactive),> 100 µM (inactive),,,,,
COC(=O)[C@@H]1CN(C(=O)CCc2ccccc2)C(=O)N1,> 100 µM (inactive),> 100 µM (inactive),> 100 µM (inactive),> 100 µM (inactive),> 100 µM (inactive),> 100 µM (inactive),> 100 µM (inactive),,> 100 µM (inactive),> 100 µM (inactive),> 100 µM (inactive),> 100 µM (inactive),> 100 µM (inactive),> 100 µM (inactive),86.1 µM (inactive),> 100 µM (inactive),> 100 µM (inactive),> 100 µM (inactive),> 100 µM (inactive),
CCN(CC)CCCN(c1cc(OC)cc2nccnc12)S(=O)(=O)c1ccc(C)cc1,> 100 µM (inactive),> 100 µM (inactive),> 100 µM (inactive),> 100 µM (inactive),> 100 µM (inactive),> 100 µM (inactive),> 100 µM (inactive),37.2 µM (inactive),> 100 µM (inactive),> 100 µM (inactive),> 100 µM (inactive),> 100 µM (inactive),> 100 µM (inactive),> 100 µM (inactive),> 100 µM (inactive),,,,,
O=C1c2ccccc2NC(=O)C2C1C(c1ccccc1)CC2(O)c1ccccc1 (stereo not drawn),67 µM (inactive),69.5 µM (inactive),21.9 µM (inactive),> 100 µM (inactive),84.5 µM (inactive),26 µM (inactive),> 100 µM (inactive),0.0128 µM (active),62.7 µM (inactive),> 100 µM (inactive),48 µM (inactive),,60.5 µM (inactive),43.2 µM (inactive),34.7 µM (inactive),> 100 µM (inactive),34.4 µM (inactive),31.7 µM (inactive),18 µM (inactive),
C=CCn1c(=O)c2ccccc2[n+]2c(-c3cccc([N+](=O)[O-])c3)csc12,> 100 µM (inactive),48.9 µM (inactive),30.6 µM (inactive),33.7 µM (inactive),11.4 µM (inactive),30.8 µM (inactive),96.8 µM (inactive),17.5 µM (inactive),54.5 µM (inactive),> 100 µM (inactive),45.4 µM (inactive),12.5 µM (inactive),62.7 µM (inactive),56.8 µM (inactive),42.1 µM (inactive),40.8 µM (inactive),87.3 µM (inactive),17.1 µM (inactive),30.9 µM (inactive),
COc1cccc(/C(Cl)=C(\C=O)c2cccc(OC)c2)c1,13.2 µM (inactive),14.8 µM (inactive),15.4 µM (inactive),14.9 µM (inactive),11.5 µM (inactive),12.3 µM (inactive),17.4 µM (inactive),8.24 µM (inactive),5.77 µM (inactive),14 µM (inactive),12.8 µM (inactive),11 µM (inactive),13.1 µM (inactive),6.71 µM (inactive),12.7 µM (inactive),,,,,
Cc1nsc2cc(Cl)n(C)c(=O)c12,0.991 µM (active),> 100 µM (inactive),> 100 µM (inactive),50.4 µM (inactive),> 100 µM (inactive),> 100 µM (inactive),> 100 µM (inactive),66.4 µM (inactive),> 100 µM (inactive),> 100 µM (inactive),> 100 µM (inactive),> 100 µM (inactive),> 100 µM (inactive),> 100 µM (inactive),> 100 µM (inactive),,,,,
COC1CC(OC(=O)c2ccccc2)C(OC(=O)c2ccccc2)C(C)O1 (stereo not drawn),> 100 µM (inactive),> 100 µM (inactive),> 100 µM (inactive),> 100 µM (inactive),> 100 µM (inactive),,> 100 µM (inactive),,> 100 µM (inactive),> 100 µM (inactive),> 100 µM (inactive),85.1 µM (inactive),> 100 µM (inactive),> 100 µM (inactive),> 100 µM (inactive),> 100 µM (inactive),> 100 µM (inactive),> 100 µM (inactive),> 100 µM (inactive),
O=c1/c(=C/c2ccccc2[N+](=O)[O-])sc2nnc(-c3ccco3)n12,22.4 µM (inactive),42 µM (inactive),15.8 µM (inactive),36.2 µM (inactive),19.1 µM (inactive),28.1 µM (inactive),18.7 µM (inactive),25.8 µM (inactive),22.2 µM (inactive),34.5 µM (inactive),17.6 µM (inactive),23 µM (inactive),18 µM (inactive),16.9 µM (inactive),25.2 µM (inactive),,,,,
O=C1N=C(S)NNC12c1ccccc1-c1ccccc12,> 10 µM (inactive),> 10 µM (inactive),,2.99 µM (inactive),5.22 µM (inactive),> 10 µM (inactive),> 10 µM (inactive),> 10 µM (inactive),> 10 µM (inactive),> 10 µM (inactive),> 10 µM (inactive),> 10 µM (inactive),> 10 µM (inactive),> 10 µM (inactive),5.42 µM (inactive),,> 10 µM (inactive),> 10 µM (inactive),,> 10 µM (inactive)
NNC(=O)C(=O)NN=C(C(Cl)(Cl)CO)C(Cl)(Cl)CO,31 µM (inactive),36.4 µM (inactive),22.1 µM (inactive),40.7 µM (inactive),40.4 µM (inactive),37.3 µM (inactive),25.2 µM (inactive),32.5 µM (inactive),30.5 µM (inactive),> 100 µM (inactive),44.1 µM (inactive),> 100 µM (inactive),24.4 µM (inactive),16.9 µM (inactive),44.9 µM (inactive),,,,,
CC(=O)NC1=C(NCCO)C(=O)c2ccccc2C1=O,> 50 µM (inactive),> 50 µM (inactive),> 50 µM (inactive),> 50 µM (inactive),29.9 µM (inactive),> 50 µM (inactive),> 50 µM (inactive),> 50 µM (inactive),> 50 µM (inactive),> 50 µM (inactive),> 50 µM (inactive),> 50 µM (inactive),> 50 µM (inactive),> 50 µM (inactive),> 50 µM (inactive),,,,,
COC(=O)[C@@]12C3=NO[C@]1(C(=O)OC)C(O[Si](C)(C)C(C)(C)C)[C@@H](OC(C)=O)[C@@H](OC(C)=O)[C@@H]2[C@@H](OCc1ccccc1)CC3 (stereo partly drawn),> 100 µM (inactive),14.2 µM (inactive),8.26 µM (inactive),> 27.7 µM (inactive),4.16 µM (inactive),> 72.3 µM (inactive),> 100 µM (inactive),8.63 µM (inactive),4.9 µM (inactive),> 100 µM (inactive),> 100 µM (inactive),14.9 µM (inactive),> 100 µM (inactive),8.81 µM (inactive),3.59 µM (inactive),,,,,
COc1cc(/C=C/c2ccc(Br)cc2)cc(OC)c1OC,7.6 µM (inactive),19.9 µM (inactive),14.6 µM (inactive),11.2 µM (inactive),5.9 µM (inactive),6.44 µM (inactive),11.4 µM (inactive),8.38 µM (inactive),16.3 µM (inactive),18.7 µM (inactive),8.11 µM (inactive),15.9 µM (inactive),14.4 µM (inactive),14.1 µM (inactive),11.6 µM (inactive),,,,,
CC(OC(C)(C)C)C(NC(=O)C(CCCCNC(=O)OC(C)(C)C)NC(=O)C(Cc1c[nH]c2ccccc12)NC(=O)C(Cc1ccccc1)NC(=O)OCC1c2ccccc2-c2ccccc21)C(=O)NC(Cc1ccccc1)C(=O)N[C@@H]1CCC[C@H]1C(=O)OCc1ccccc1 (stereo partly drawn) (Fmoc-[ξF][ξW][ξK](Boc)[ξT](tBu)[ξF]-X38),> 100 µM (inactive),> 100 µM (inactive),32.1 µM (inactive),> 100 µM (inactive),14.6 µM (inactive),> 100 µM (inactive),> 100 µM (inactive),> 100 µM (inactive),> 100 µM (inactive),> 100 µM (inactive),> 100 µM (inactive),> 100 µM (inactive),38.9 µM (inactive),> 100 µM (inactive),> 100 µM (inactive),> 100 µM (inactive),65.3 µM (inactive),> 100 µM (inactive),> 100 µM (inactive),
